From article doi:10.1101/2023.02.06.527370, “A remarkable transformation catalyzed by a domain-of-unknown-function 692 during the biosynthesis of a new RiPP natural product” (bioRxiv, 2023)

Biological target: T1, ChrHI (ChrH with ChrI) (Chryseobacterium sp. JM1, UniProt A0A086ASD2)
T1 construct: gene IW22_14845
Experiment: MALDI-TOF MS of in vitro reaction products after LysC digestion
Type: biochemical
Conditions: precursor peptide ChrA as co-substrate, DTT, aerobic, iron-containing enzyme; methyl donor; also run with 13CD3-SAM (labelled compound)

T1 sequence (A0A086ASD2 entry or part of it): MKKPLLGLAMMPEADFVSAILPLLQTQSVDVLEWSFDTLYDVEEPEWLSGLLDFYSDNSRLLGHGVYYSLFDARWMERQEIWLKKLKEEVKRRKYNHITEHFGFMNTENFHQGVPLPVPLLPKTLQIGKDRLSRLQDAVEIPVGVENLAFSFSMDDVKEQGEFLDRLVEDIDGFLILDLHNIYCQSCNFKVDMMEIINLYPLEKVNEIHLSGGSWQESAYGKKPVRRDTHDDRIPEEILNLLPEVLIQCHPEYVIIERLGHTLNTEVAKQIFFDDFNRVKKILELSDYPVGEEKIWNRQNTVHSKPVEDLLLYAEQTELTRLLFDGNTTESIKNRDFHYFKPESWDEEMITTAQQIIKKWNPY

In the case of `C[S+](CC[C@H](N)C(=O)O)C[C@H]1O[C@@H](n2cnc3c(N)ncnc32)[C@H](O)[C@@H]1O` (stereo partly shown) [SAM, S-adenosylmethionine], the “MALDI-TOF MS of in vitro reaction products after LysC digestion” value is reported as “SAM is the methyl donor in the posttranslational modification of ChrA by ChrHI”.
